Legend:
iNOS = iNOS protein expression in LPS-IFN-γ stimulated macrophages (western blot); format: cell-based, murine; conditions: LPS-IFN-γ stimulated macrophages, western blot
Experimental: Western blot analysis. After incubation with the indicated stimuli in the presence of ILK inhibitors, cells (duplicate samples, 2×10^6cell/6-wells plate) were washed in PBS and lysed on ice in 60 μl of lysis buffer. The protein content of each sample was determined using the Bradford protein assay kit (Bio-Rad, Richmond, Calif.). Absorbance was measured at 750 nm with a Beckman DU530 spectrophotometer (Palo Alto, Calif.). Proteins were mixed with […] sample buffer. Following separation of proteins by SDS-PAGE, using 8% bis-acrylamide in the separation gel, the proteins were transferred from the gels onto PVDF membranes using a MiniProtean III Cell (Bio-Rad), at 100 V for 1.5 h. Equal amounts of protein (5 μg) were loaded onto SDS-PAGE gels and examined by Western blot analysis with anti-Actin, anti-iNOS, anti-COX-2 murine monoclonal antibodies according to the manufacturers specifications (Transduction Laboratories). Primary Abs, in 5% blocking buffer (5% NFM/TTBS), were incubated with blots 2 h or overnight at 4° C., followed by incubation with peroxidase-conjugated secondary antibody. Chemiluminescence substrates were used to reveal positive bands. The bands were exposed on x-ray films. […] The Multi-Analyst/PC system from Biorad is being used to quantitate the bands of the expressed protein on the film. […] White light is chosen as the selected light source, thus the signal strength is measured in OD (optic density) units. […]
Effects of ILK inhibitors on the LPS-IFN-γ-induced iNOS and COX-2 expression NO production requires that iNOS be enzymatically activity, therefore experiments were performed to examine whether the inhibitory effect of ILK inhibitors was mediated by […] iNOS protein synthesis or effects on the activity of existing enzyme. Stimulated cells were treated with ILK inhibitors (25 μM), and lysed 16 h later and a western blot analysis was performed to quantitate iNOS protein expression. […]

GSK3β = GSK3β (Homo sapiens, UniProt P49841); experiment: Protein kinase selectivity, GSK3β; format: biochemical
CK2 = CK2 (Homo sapiens, UniProt P68400); experiment: Protein kinase selectivity, CK2; format: biochemical
HUVEC cells = experiment: In vitro Matrigel morphogenesis (tube formation) assay of VEGF stimulated HUVEC cells; format: cell-based, human; conditions: 100 mM (so in the source)
Experimental: In Vitro Angiogenesis. […] After 5 hours of incubation in a 5% CO2-humidified atmosphere at 37 °C, the three-dimensional organization of the cells was examined using an inverted photomicroscope. The cells were fixed with Crystal Violet (0.05% in 20% ethanol) and digitally photographed.
To determine the anti-angiogenic properties of ILK inhibitors, an in vitro Matrigel morphogenesis assay was established. This assay evaluates the ability of endothelial cells to differentiate into capillary-like structures, a crucial step during neovascularization. HUVEC cells when stimulated with VEGF and seeded onto Matrigel rapidly attach to the matrix and begin to migrate and interact with the extracellular matrix proteins present in the Matrigel. […] These capillary-like structures can be assessed by histology (FIG. 2). Samples are cut on a cross section and subsequent viewed using an electron microscope. Typically, cylindrical formations with a lumen are observed. A distinct difference in the morphology of tube formation on Matrigel, compared to other in vitro angiogenesis assays is a reduction in the proliferation of endothelial cells. […] Using this model system, both inhibitors and stimulators of angiogenesis can be assessed prior to in vivo testing.
The assay was established and reproducibility confirmed. SU5416, shown to inhibit angiogenesis in other assays, was also evaluated. […]

ERK1 = ERK1 (Homo sapiens, UniProt P27361); experiment: Protein kinase selectivity, ERK1; format: biochemical
CDC2 = CDC2 (Homo sapiens, UniProt P06493); experiment: Protein kinase selectivity, CDC2; format: biochemical
SRC = SRC (Homo sapiens, UniProt P12931); experiment: Protein kinase selectivity, SRC; format: biochemical
SRC, sequence (P12931 whole entry, species assumed): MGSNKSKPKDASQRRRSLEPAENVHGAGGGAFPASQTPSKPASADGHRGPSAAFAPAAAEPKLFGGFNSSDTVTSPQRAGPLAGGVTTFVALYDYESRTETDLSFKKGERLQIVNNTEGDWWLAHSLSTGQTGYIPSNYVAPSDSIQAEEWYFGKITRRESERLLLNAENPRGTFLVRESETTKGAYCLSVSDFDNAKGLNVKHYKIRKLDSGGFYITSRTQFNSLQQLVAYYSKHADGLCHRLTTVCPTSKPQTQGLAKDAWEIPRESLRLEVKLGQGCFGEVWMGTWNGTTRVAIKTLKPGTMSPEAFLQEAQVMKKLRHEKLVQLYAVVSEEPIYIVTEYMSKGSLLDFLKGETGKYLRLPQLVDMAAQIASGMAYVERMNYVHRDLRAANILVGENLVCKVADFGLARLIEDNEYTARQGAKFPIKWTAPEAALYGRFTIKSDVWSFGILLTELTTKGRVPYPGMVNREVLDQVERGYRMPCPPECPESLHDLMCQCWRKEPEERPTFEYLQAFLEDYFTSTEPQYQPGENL

ERK1, sequence (P27361 whole entry, species assumed): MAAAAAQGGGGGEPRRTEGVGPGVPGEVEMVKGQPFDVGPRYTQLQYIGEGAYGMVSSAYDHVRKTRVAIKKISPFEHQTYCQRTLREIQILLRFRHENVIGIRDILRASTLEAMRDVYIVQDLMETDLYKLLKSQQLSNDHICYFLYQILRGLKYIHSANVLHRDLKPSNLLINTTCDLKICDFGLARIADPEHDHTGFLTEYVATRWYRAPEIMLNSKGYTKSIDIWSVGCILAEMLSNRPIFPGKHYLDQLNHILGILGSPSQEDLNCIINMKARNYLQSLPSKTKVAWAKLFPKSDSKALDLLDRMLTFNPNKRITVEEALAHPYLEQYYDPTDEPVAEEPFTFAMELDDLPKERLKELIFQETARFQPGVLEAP
GSK3β, sequence (P49841 whole entry, species assumed): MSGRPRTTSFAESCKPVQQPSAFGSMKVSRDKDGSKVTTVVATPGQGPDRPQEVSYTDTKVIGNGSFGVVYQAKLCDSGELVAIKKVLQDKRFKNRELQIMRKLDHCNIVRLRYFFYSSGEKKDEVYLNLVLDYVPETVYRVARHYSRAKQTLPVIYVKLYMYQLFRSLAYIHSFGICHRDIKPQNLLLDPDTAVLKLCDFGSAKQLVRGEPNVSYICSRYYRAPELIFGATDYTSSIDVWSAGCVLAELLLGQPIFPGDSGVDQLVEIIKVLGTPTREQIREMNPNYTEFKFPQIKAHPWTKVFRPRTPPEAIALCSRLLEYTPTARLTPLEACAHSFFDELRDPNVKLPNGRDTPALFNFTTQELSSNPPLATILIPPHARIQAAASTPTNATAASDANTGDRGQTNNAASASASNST
CK2, sequence (P68400 whole entry): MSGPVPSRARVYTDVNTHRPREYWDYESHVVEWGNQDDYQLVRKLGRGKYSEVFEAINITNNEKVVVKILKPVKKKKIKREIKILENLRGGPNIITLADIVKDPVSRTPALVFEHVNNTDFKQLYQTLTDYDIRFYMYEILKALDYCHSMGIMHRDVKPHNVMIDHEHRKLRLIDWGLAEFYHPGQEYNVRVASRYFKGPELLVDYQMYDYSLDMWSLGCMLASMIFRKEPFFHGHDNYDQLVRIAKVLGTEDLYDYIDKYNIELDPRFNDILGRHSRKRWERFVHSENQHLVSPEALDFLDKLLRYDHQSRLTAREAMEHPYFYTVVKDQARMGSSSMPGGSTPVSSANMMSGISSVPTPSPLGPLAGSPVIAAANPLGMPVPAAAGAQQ
CDC2, sequence (P06493 whole entry, species assumed): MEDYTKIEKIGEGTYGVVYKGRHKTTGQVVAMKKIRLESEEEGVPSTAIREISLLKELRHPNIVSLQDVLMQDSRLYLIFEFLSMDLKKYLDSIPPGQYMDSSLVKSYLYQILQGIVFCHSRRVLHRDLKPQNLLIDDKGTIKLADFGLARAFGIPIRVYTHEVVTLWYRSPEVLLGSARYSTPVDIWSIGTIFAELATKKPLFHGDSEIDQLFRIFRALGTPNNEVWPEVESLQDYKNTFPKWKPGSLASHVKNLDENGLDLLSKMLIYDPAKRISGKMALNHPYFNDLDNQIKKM
CDC2, sequence (P14635 whole entry partner, species assumed): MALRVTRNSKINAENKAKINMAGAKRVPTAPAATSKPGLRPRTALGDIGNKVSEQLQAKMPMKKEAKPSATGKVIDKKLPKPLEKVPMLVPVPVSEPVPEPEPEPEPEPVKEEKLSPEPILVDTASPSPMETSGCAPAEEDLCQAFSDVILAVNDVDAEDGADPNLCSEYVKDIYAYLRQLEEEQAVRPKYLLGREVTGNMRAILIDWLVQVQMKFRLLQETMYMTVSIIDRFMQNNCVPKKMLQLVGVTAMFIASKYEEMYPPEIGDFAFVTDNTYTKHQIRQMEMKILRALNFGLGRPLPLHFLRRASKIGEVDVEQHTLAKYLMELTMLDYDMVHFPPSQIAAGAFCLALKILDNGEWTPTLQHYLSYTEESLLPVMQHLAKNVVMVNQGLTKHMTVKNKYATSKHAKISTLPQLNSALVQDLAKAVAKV

| Structure (SMILES) | iNOS protein expression (in words) (iNOS) | Inhibition of GSK3β (in words) (GSK3β) | Inhibition of CK2 (in words) (CK2) | Effect on endothelial cell morphogenesis (in words) (HUVEC cells) | Inhibition of ERK1 (in words) (ERK1) | Inhibition of CDC2 (in words) (CDC2) | Inhibition of SRC (in words) (SRC) |
| --- | --- | --- | --- | --- | --- | --- | --- |
| N=C(N)N/N=C/c1ccc(Cl)cc1Cl [KP-16735] | significantly inhibited the expression of iNOS protein |  |  |  |  |  |  |
| Oc1ccc2c(c1)CC1NCCc3cc(O)c(O)c-2c31 (centres unmarked) [KP-21849, 5,6,6a,7-Tetrahydro-4H-dibenzo[de,g]quinoline-1,2,9-triol] | significantly inhibited the expression of iNOS protein | does not significantly inhibit | does not significantly inhibit | profound effect on HUVEC cells | does not significantly inhibit | does not significantly inhibit | does not significantly inhibit |
